From patent US8889878B2, “Haloalky-substituted amides as insecticides and acaricides” (Bayer CropScience AG, priority 2009, dated 2014) come the findings set out here.

Data set [1] has as its system Boophilus microplus. Put plainly: Boophilus microplus test (BOOPMI injection), Example 1. The format is in vivo. Conditions: application rate 20 μg/animal, injected into abdomen, after 7 days. In outline: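 Compound in DMSO, diluted with water, injected into the abdomen of engorged ticks, which were then held in a climate-controlled room. Efficacy was scored after 7 days from fertile egg laying, with 100% meaning no tick laid fertile eggs.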

The subject of data set [2] is Ctenocephalides felis. Put plainly: Ctenocephalides felis oral (CTECFE), Example 2. Type of data set: in vivo. Conditions: application rate 20 ppm in citrated cow's blood, after 2 days. On the procedure: (§1) Ctenocephalides felis Oral ([…]) • Solvent: 1 part by weight of dimethyl sulphoxide For the purpose of preparing an active ingredient formulation, 10 mg of active ingredient are mixed with 0.5 ml of dimethyl sulphoxide. A portion of the concentrate was diluted with citrated cow's blood and the desired concentration was prepared. 20 unfed adult fleas (Ctenocephalides felis) are placed into a chamber sealed at the top and bottom with gauze. A metal cylinder with its lower end sealed with Parafilm is placed onto the chamber. The cylinder contains the blood-active ingredient preparation, which can be consumed by the fleas through the Parafilm membrane. After 2 days, the kill rate in % is determined. 100% means that all fleas were killed; 0% means that no fleas were killed.

A further data set has as its system Lucilia cuprina larvae. Briefly: Lucilia cuprina test (LUCICU), Example 3. Type of data set: in vivo. Particulars: application rate 20 ppm, treated horsemeat, after 2 days. As for the experimental part: Lucilia cuprina Test (LUCICU) • Solvent: dimethyl sulphoxide To prepare an active ingredient formulation, 10 mg of active ingredient are mixed with 0.5 ml of dimethyl sulphoxide, and the concentrate is diluted with water to the desired concentration. Vessels containing horsemeat which has been treated with the active ingredient formulation of the desired concentration are populated with Lucilia cuprina larvae. After 2 days, the kill rate in % is determined. 100% means that all larvae were killed; 0% means that no larvae were killed.

The subject of data set [3] is green peach aphid (Myzus persicae). Briefly: Myzus test (MYZUPE spray treatment), Example 5. Type of data set: in vivo. Conditions: application rate 20 g/ha, china cabbage leaf discs sprayed, after 6 days. On the procedure: Myzus Test (MYZUPE Spray Treatment)
• Solvent: 78 parts by weight of acetone • 1.5 parts by weight of dimethylformamide • Emulsifier: 0.5 part by weight of alkylaryl polyglycol ether
To prepare an active ingredient formulation, 1 part by weight of active ingredient is mixed with the stated amounts of solvent and emulsifier, and the concentrate is diluted with emulsifier-containing water to the desired concentration. Leaf discs from china cabbage (Brassica pekinensis) infested by all stages of the green peach aphid (Myzus persicae) are sprayed with an active ingredient formulation of the desired concentration.
After 6 days, the efficacy in % is determined. 100% means that all aphids were killed; 0% means that no aphids were killed.

Data set [4] has as its system mustard beetle (Phaedon cochleariae). Briefly: Phaedon test (PHAECO spray treatment), Example 7. The format is in vivo. Particulars: application rate 20 g/ha, china cabbage leaf discs sprayed, after 7 days. An outline of the steps: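 Spray formulation (acetone/DMF with alkylaryl polyglycol ether, diluted in emulsifier-containing water) applied to Chinese cabbage leaf discs, which were dried and then stocked with mustard beetle larvae. Efficacy scored at 7 days as % larvae killed (100% all, 0% none).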

For data set [5], the system named is red spider mite (Tetranychus urticae). Put plainly: Tetranychus test, OP-resistant (TETRUR spray treatment), Example 8. The format is in vivo. Particulars: application rate 20 g/ha, common bean leaf discs sprayed, after 6 days. An outline of the steps:
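Bean (Phaseolus vulgaris) leaf discs carrying all stages of OP-resistant Tetranychus urticae sprayed with compound in acetone/DMF with emulsifier, diluted in water to the test concentration. Mortality scored after 6 days as % efficacy (100% = all mites killed).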

Data set [6] relates to Boophilus microplus. Put plainly: Boophilus microplus test (BOOPMI injection), Example 11. The format is in vivo. Conditions: application rate 20 μg/animal, injected into abdomen, after 7 days. An outline of the steps: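 Adult ticks injected in the abdomen with compound diluted in DMSO, then held in a climate-controlled room. Efficacy in % determined after 7 days from fertile eggs laid; 100% means no tick laid fertile eggs.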

Data set [7] deals with green peach aphid (Myzus persicae). Briefly: Myzus test (MYZUPE spray treatment), Example 17. Conditions: china cabbage leaf discs sprayed, after 6 days. Type of data set: in vivo. In outline: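 Chinese cabbage leaf discs infested with all aphid stages were sprayed with compound formulated in acetone/dimethylformamide plus alkylaryl polyglycol ether emulsifier, diluted in emulsifier-containing water. Mortality read after 6 days as % efficacy (100% all killed, 0% none killed).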

Data set [8] in a line: logP by HPLC on reverse-phase column (EEC Directive 79/831 Annex V.A8). Type of data set: physicochemical. Particulars: for logP: HPLC-MS. As for the experimental part: The logP values reported in the above Tables and Preparation Examples were determined according to EEC Directive 79/831 Annex V.A8 by HPLC (High Performance Liquid Chromatography) on a reverse-phase column (C18). Temperature 43° C.

Data set [9] deals with Boophilus microplus females of the SP-resistant Parkhurst strain. Put plainly: Boophilus microplus test (DIP), Example 10. Type of data set: in vivo. Conditions: application rate 100 ppm, after 7 days. On the procedure:
Boophilus microplus Test (DIP)
Test animals: adult engorged Boophilus microplus females of the SP-resistant Parkhurst strain • Solvent: dimethyl sulphoxide
10 mg of active ingredient are dissolved in 0.5 ml of dimethyl sulphoxide. For the purpose of preparing a suitable formulation, the active ingredient solution is diluted with water to the concentration desired in each case.
This active ingredient formulation is pipetted into tubes. 8-10 ticks are transferred into a further tube with holes. The tube is immersed into the active ingredient formulation, and all ticks are completely wetted. After the liquid has run out, the ticks are transferred onto filter discs in plastic dishes and stored in a climate-controlled room. The efficacy is assessed after 7 days by the number of fertile eggs laid. Eggs whose fertility is not outwardly visible are stored in glass tubes in a climate-controlled cabinet until the larvae hatch. Efficacy of 100% means that none of the ticks has laid any fertile eggs.

In data set [10] the test system is Tick nymphs (Amblyomma hebraeum). Briefly: Amblyomma hebaraeum test (AMBYHE), Example 9. Type of data set: in vivo. Conditions: application rate 100 ppm, immersed one minute, after 42 days. As for the experimental part:
Amblyomma hebaraeum Test (AMBYHE) • Solvent: dimethyl sulphoxide To prepare an appropriate active ingredient formulation, 10 mg of active ingredient are mixed with 0.5 ml of dimethyl sulphoxide, and the concentrate is diluted with water to the desired concentration. Tick nymphs (Amblyomma hebraeum) are placed into perforated plastic cups and immersed in the desired concentration for one minute. The ticks are transferred onto filter papers in a Petri dish and stored in a climate-controlled cabinet. After 42 days, the kill rate in % is determined. 100% means that all ticks were killed; 0% means that no ticks were killed.

In data set [11] the test system is armyworm (Spodoptera frugiperda). Briefly: Spodoptera frugiperda test (SPODFR spray treatment), Example 6. Type of data set: in vivo. Particulars: application rate 20 g/ha, maize leaf discs sprayed, after 7 days. As for the experimental part: Spodoptera frugiperda Test (SPODFR Spray Treatment)
(§2) • Solvent: 78.0 parts by weight of acetone • 1.5 parts by weight of dimethylformamide • Emulsifier: 0.5 part by weight of alkylaryl polyglycol ether
To prepare an active ingredient formulation, 1 part by weight of active ingredient was mixed with the stated amounts of solvent and emulsifier, and the concentrate was diluted with emulsifier-containing water to the desired concentration. Leaf discs from maize (Zea mays) are sprayed with an active ingredient formulation of the desired concentration and, after drying, populated with caterpillars of the armyworm (Spodoptera frugiperda).
After 7 days, the efficacy in % is determined. 100% means that all caterpillars were killed; 0% means that no caterpillars were killed.

The next data set concerns Musca domestica adults. Briefly: Musca domestica test (MUSCDO), Example 14. Type of data set: in vivo. Conditions: application rate 100 ppm, treated sponge, after 2 days. In outline: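 Compound dissolved in DMSO and diluted in water to the test concentration, then applied to a sponge in vessels holding adult flies. Percent kill scored after 2 days (100% = all flies dead).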

Data set [12] deals with Ctenocephalides felis. Put plainly: Ctenocephalides felis oral (CTECFE), Example 12. The format is in vivo. Conditions: application rate 100 ppm in citrated cow's blood, after 2 days. As for the experimental part:
as §1, with “preparing an appropriate active ingredient” for “preparing an active ingredient”, “the concentrate is diluted with” for “the concentrate was diluted with”, “desired concentration is established. About 20 unfed” for “desired concentration was prepared. 20 unfed”

The subject of data set [13] is armyworm (Spodoptera frugiperda). Briefly: Spodoptera frugiperda test (SPODFR spray treatment), Example 15. Particulars: Spodoptera frugiperda, foliar, 168 h; application rate 500 g/ha, maize leaf discs sprayed, after 7 days; read-out: efficacy in %. The format is in vivo. In outline:
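Maize leaf discs sprayed with active ingredient in acetone/DMF with alkylaryl polyglycol ether emulsifier, diluted in water, then populated with caterpillars after drying. Efficacy in % after 7 days: 100% all caterpillars killed, 0% none.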

Data set [14] relates to mustard beetle (Phaedon cochleariae). Put plainly: Phaedon test (PHAECO spray treatment), Example 16. Type of data set: in vivo. Conditions: Phaedon cochleariae, foliar; application rate 500 g/ha, china cabbage leaf discs sprayed, after the desired time; read-out: efficacy in %. An outline of the steps: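 Chinese cabbage leaf discs sprayed with acetone/DMF-emulsifier formulation of active ingredient diluted in emulsifier-containing water, then infested with mustard beetle larvae after drying. Efficacy scored as % larval kill (100% = all killed, 0% = none) after the chosen time.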

The subject of data set [15] is red spider mite (Tetranychus urticae). Put plainly: Tetranychus test; OP-resistant (TETRUR spray treatment), Example 18. Type of data set: in vivo. Conditions: Tetranychus urticae, foliar, 144 h; application rate 500 g/ha, common bean leaf discs sprayed, after 6 days; read-out: efficacy in %. On the procedure:
Tetranychus Test; OP-Resistant (TETRUR Spray Treatment)
as §2
To prepare an appropriate active ingredient formulation, 1 part by weight of active ingredient is mixed with the stated amounts of solvent and emulsifier, and the concentrate is diluted with emulsifier-containing water to the desired concentration. Leaf discs from the common bean (Phaseolus vulgaris) infested by all stages of the red spider mite (Tetranychus urticae) are sprayed with an active ingredient formulation of the desired concentration.
After 6 days, the efficacy in % is determined. 100% means that all spider mites were killed; 0% means that no spider mites were killed.

Take `O=C(/C=C/c1ccc(C(=O)NCc2ccccn2)c(Br)c1)NC(c1cccc(C(F)(F)F)c1)C(F)(F)F` (centres unmarked) [Ia-41]: the “efficacy in % (fertile eggs laid)” value in the data set on Boophilus microplus [1] and with Boophilus microplus [6] was 100% throughout. Moreover, the figures for the “kill rate in % (efficacy)” value with Ctenocephalides felis [2] and in the data set with Lucilia cuprina larvae were 100% and 90%, respectively. Moreover, the efficacy in % turned out to be 100% in [3], 100% in data set [4], 100% in [5] and 90% in data set [7] (application rate 500 g/ha). In data set [8], the logP result is reported as “HPLC-MS: logP = 2.76; mass”.
As to `CC(CF)NC(=O)c1ccc(/C=C/C(=O)NC(c2cccc(C(F)(F)F)c2)C(F)(F)F)cc1Cl` (centres unmarked) [Ia-112], the efficacy in % in data set [3], in data set [4] and in data set [5] was 100% throughout. The “efficacy in % (fertile eggs laid)” value (in [9]; in the data set with Boophilus microplus [6]) was 100% each time. Also, the logP entry in [8] is “HPLC-MS: logP = 3.25 mass”.
Regarding `O=C(/C=C/c1ccc(C(=O)NC2CCC2)c(Cl)c1)NC(c1cccc(C(F)(F)F)c1)C(F)(F)F` (centres unmarked) [Ia-162], the “kill rate in % (efficacy)” value in [10] came out at 100%. Also, the “efficacy in % (fertile eggs laid)” value (in [9]; in the data set with Boophilus microplus [6]) was 100% in each case. In data set [7] (application rate 100 g/ha), this molecule came in with an efficacy in % of 100%. Besides, the logP result in [8] is “HPLC-MS: logP = 3.59; mass”.
For the molecule `O=C(/C=C/c1ccc(C(=O)Nc2ccccn2)c(C(F)(F)F)c1)NC(c1cc(Cl)cc(C(F)(F)F)c1)C(F)(F)F` (centres unmarked) [Ia-82], the values for the efficacy in % in data set [11] and in data set [4] were 83% and 100%, respectively. The “efficacy in % (fertile eggs laid)” value in the data set with Boophilus microplus [6] is given as 100%. Moreover, the logP result in data set [8] is “HPLC-MS: logP = 4.32; mass”.
Consider `O=C(/C=C/c1ccc(C(=O)Nc2ccc(Cl)nc2)c(C(F)(F)F)c1)NC(c1cccc(C(F)(F)F)c1)C(F)(F)F` (centres unmarked) [Ia-72], for which the efficacy in % is given as 83% in data set [11] and 100% in data set [4]. For the same molecule, the logP entry in [8] is reported as “HPLC-MS: logP = 3.73; mass”.
For the molecule `O=C(/C=C/c1ccc(C(=O)NC2CC2)c(C(F)(F)F)c1)NC(c1cccc(C(F)(F)F)c1)C(F)(F)F` (centres unmarked) [Ia-23], the “efficacy in % (fertile eggs laid)” value with Boophilus microplus [1] and in the data set on Boophilus microplus [6] was 100% in each case. Besides, the “kill rate in % (efficacy)” value in the data set with Ctenocephalides felis [2], in the data set on Lucilia cuprina larvae and with Musca domestica adults was 100% each time. The efficacy in % is reported as 83% in data set [11], 100% in [4] and 100% in data set [7] (application rate 500 g/ha). Also, the logP result in data set [8] is given as “HPLC-MS: logP = 3.18; mass”.
Consider `O=C(/C=C/c1ccc(C(=O)Nc2ccccn2)c(C(F)(F)F)c1)NC(c1cccc(C(F)(F)F)c1)C(F)(F)F` (centres unmarked) [Ia-54], for which the efficacy in % in data set [11], in data set [4] and in data set [5] was 100% throughout. Besides, the “efficacy in % (fertile eggs laid)” value in the data set on Boophilus microplus [6] stood at 100%. In addition, the “kill rate in % (efficacy)” value with Ctenocephalides felis [12] stood at 95%. Further, in data set [8], the logP entry is recorded as “HPLC-MS: logP = 3.58; mass”.
As for `CC(CF)NC(=O)c1ccc(/C=C/C(=O)NC(c2cccc(C(F)(F)F)c2)C(F)(F)F)cc1C(F)(F)F` (centres unmarked) [Ia-75, N-(1-Fluoropropan-2-yl)-4-[(1E)-3-oxo-3-({2,2,2-trifluoro-1-[3-(trifluoromethyl)phenyl]-ethyl}amino)prop-1-en-1-yl]-2-(trifluoromethyl)benzamide], the figures for the efficacy in % in data set [3], in data set [4] and in data set [5] were 80%, 100% and 100%, respectively. In addition, in the data set with Boophilus microplus [6] (Rhipicephalus microplus, 168 h, read-out: efficacy in % (fertile eggs laid)), the pest or weed control at 0.02 mg was determined as 100%. Besides, the pest or weed control at 500 g/ha in data set [13], in data set [14] and in data set [15] was 100% in each case. The chromatographic logP (in general, a lipophilicity value derived from retention on a column) in [8] (reverse-phase C18 HPLC column, pH 2.7, HPLC, C18 reverse phase, 43° C., acidic range pH 2.7, calibration with alkan-2-ones) stood at 3.37.
